Source: patent US12133842B2, “Stable preservative-free mydriatic and anti-inflammatory solutions for injection” (RAYNE INTRAOCULAR LENSES LIMITED, priority 2012, dated 2024)
Entries after “also recorded” stand apart in the source; their conditions may differ. Where a name gives a salt, the structure may show the parent alone.

How the values were obtained:
[1] = tested on: African green monkey model of human phacoemulsification surgery; experiment: Concentration-ranging study of phenylephrine and ketorolac, intraoperative irrigation, phacoemulsification surgical model, Example 6; format: in vivo
Experimental: (§1) In each case an aliquot of the formulation was injected into a balanced salt solution (BSS, Baxter Healthcare, produce code 1A7233) as the irrigation vehicle carrier to a particular final dosing concentration as described below. The studies also utilized Proparacaine HCl (0.5%, Bausch & Lomb), Tropicamide (1.0%, Bausch & Lomb) and Ciprofloxacin HCl (3%, Alcon) to the extent described below.
(§2) The mydriatic and anti-inflammatory properties of the test agents were evaluated in an African green monkey model of human phacoemulsification surgery. Prior to surgery, baseline measures and assessments were performed on both eyes in each monkey to determine pupil diameter, lens and iris integrity, corneal thickness, and anterior chamber flare and cell count by qualitative scoring under biomicroscopy and quantitative flare photometry using a Kowa FM-500 instrument. A phacoemulsification surgery with lens replacement with a polymethyl methacrylate (PMMA) artificial lens was performed using a Storz Premier anterior phacoemulsification machine. The procedure was only performed on the right eye to minimize surgery position variability, allow the left to serve as control, and to minimize the consequence of any possible vision loss induced.
Test animals were placed in a prone position under ketamine/xylazine anesthesia augmented with one drop of topical proparacaine. A small incision was made in the cornea of the right eye with a MVR 20 G lance blade, through which 0.4-0.6 mL of viscoelastic (2% hydroxypropyl methylcellulose, EyeCoat, Eyekon Medical) was introduced into the anterior chamber via a viscoelastic injector. A corneal incision was made 1.0 mm anterior to the limbus using a 2.65 mm straight clear cornea bi-beveled blade. Irrigation was applied with the phacoemulsification hand piece to remove viscoelastic and introduce the test perfusate. After irrigation for a total of four minutes, irrigation was stopped and the anterior chamber refilled with viscoelastic. A capsulorhexis was performed and the phacoemulsification tip reintroduced into the anterior chamber with the application of phacoemulsification energy to disrupt the lens and allow aspiration and lens fragment removal. Irrigation was extended for a period after lens removal to standardize intraocular perfusate delivery across all treatment groups (a total of 14 minutes during this phacoemulsification segment of the irrigation). Following the phacoemulsification and irrigation procedure, a PMMA intraocular lens (IOL) was inserted and an additional two minutes of irrigation perfumed, after which the corneal incision was closed with two 12.0 nylon sutures. Irrigation with a test fluid or vehicle control, as described below, was performed for a total of 20 minutes at a flow rate of 20 mL/min, prior to, during and after phacoemulsification and lens replacement.
(§3) In these studies, laser flare photometry was performed at baseline, 4.5, 24, 48 hours and 1 week after the initiation of the surgical procedure using a Kowa FM-500 (Kowa Company, Tokyo Japan). The Kowa FM-500 measures laser light scattering to quantify anterior chamber flare. A laser is directed into the anterior chamber and protein molecules, released into the anterior chamber during an inflammatory response, pass through the focal point scattering laser light. This light scattering is quantified by a photomultiplier tube as photon counts per millisecond. At each observation point, measurements were collected until seven acceptable readings (difference between two background measurements <15%) were obtained and the lowest and highest readings were deleted and the mean value+/−the standard deviation calculated, as specified by the manufacturer.
The time course of the mydriatic effect was documented through video recording of the pupil during the perfusion procedure. Pupil diameter and the fixed width of the lid speculum (11 mm) were measured from the screen image to allow calculation of the pupil diameter in millimeters.

[2] = tested on: subjects undergoing unilateral cataract extraction with lens replacement (CELR); experiment: Phase 2b human clinical study, irrigation during cataract extraction with lens replacement (CELR), Example 10; format: in vivo; conditions: for Subjects Having Pupil Diameter <6 mm during CELR (number of subjects) / Subjects Having Pupil Diameter <6 mm during CELR (percent): intent-to-treat, n = 49 combination, 52 KE, 49 PE
Experimental: A Phase 2b human clinical study evaluated a ketorolac and phenylephrine combination drug composition, formulated in accordance with Formula 1 of the present invention-, for its effect on the maintenance of intra-operative mydriasis (pupil dilation) and reduction of postoperative pain and irritation resulting from cataract and other lens replacement surgery. The combination drug composition was diluted into a balanced salt solution irrigation carrier prior to intraocular administration during intraocular surgical procedures.
The subject Phase 2b study was a randomized, parallel group, vehicle-controlled, factorial design study, and was run to compare phenylephrine (PE), ketorolac (KE) and the combination drug composition containing both PE and KE in subjects undergoing unilateral cataract extraction with lens replacement (CELR) using a coaxial phacoemulsification process with insertion of an acrylic lens. Administration of test irrigation solutions occurred in a double-masked fashion. The study evaluated, in a four-arm full-factorial design, the contribution of the two active pharmaceutical ingredients (PE and KE, alone and in combination) to the maintenance of mydriasis and post-operative reduction in pain when administered diluted in balanced salt solution (BSS). The study also explored the effect of the combination drug composition, PE, and KE on postoperative inflammation. Subjects were randomized to one of the following four treatment arms in a 1:1:1:1 fashion: • a. BSS vehicle • b. 483 μM PE in BSS • c. 89 μM KE in BSS • d. the combination drug composition containing 483 μM PE and 89 μM KE in BSS.
All subjects in this study received preoperative mydriatics and anesthetics. In each of the four groups, the respective irrigation treatment was administered as a single irrigation of the anterior chamber of the eye during the CELR surgical procedure, with a mean of 8 minutes of exposure in this study. In addition, at the end of the procedure, the anterior chamber was filled with the irrigation treatment. The change in pupil diameter over time from surgical baseline (immediately prior to surgical incision) to the end of the surgical procedure (wound closure) was measured, as was postoperative pain on the day of operation as measured by the Visual Analog Scale (VAS) at 2, 4 6, 8 and 10-12 hours and at other times recorded by the patient prior to taking rescue pain medication.

[3] = cited from earlier work
[4] = tested on: African green monkey model of human phacoemulsification surgery; experiment: Phenylephrine and ketorolac combination (90 μM PE, 30 μM KE) irrigation in phacoemulsification surgical model, Example 7; format: in vivo
Experimental: as §1
as §2, with “The procedure was only performed on the right eye to minimize surgery position variability, allow the left to serve as control, and to minimize the consequence of any possible vision loss induced.” left out
as §3, with “A laser is directed into the anterior chamber and protein molecules, released into the anterior chamber during an inflammatory response, pass through the focal point scattering laser light.” left out
The time course of the mydriatic effect was documented through video recording of the pupil during the perfusion procedure. Pupil diameter and the fixed width of the lid speculum (11 mm) were measured from the screen image to allow calculation of the pupil diameter in millimeters. […]

[5] = tested on: African green monkeys undergoing phacoemulsification surgery with lens replacement; experiment: GLP toxicology (safety) study of PE-KE irrigation in phacoemulsification surgery, Example 9; format: in vivo, African green monkey; conditions: tropicamide control group; thirty seconds after intracameral 150 μl BSS alone
Experimental: as §1
The mydriatic and anti-inflammatory properties of the test agents were evaluated in an African green monkey model of human phacoemulsification surgery. Prior to surgery, baseline measures and assessments were performed on both eyes in each monkey to determine pupil diameter, lens and iris integrity, corneal thickness, and anterior chamber flare and cell count by qualitative scoring under biomicroscopy and quantitative flare photometry using a Kowa FM-500 instrument. […]
A nonclinical GLP toxicology study was carried out in African green monkeys. […] Three concentrations were evaluated: 720 μM PE and 90 μM KE (720:90 μM) in the low concentration group, 2160 μM PE and 270 μM KE (2160:270 μM) in the mid concentration group, and 7200 μM PE and 900 μM KE (7200:900 μM) in the high concentration group.
A separate control group was evaluated as well. […]

O=C(c1ccccc1)c1ccc2n1CCC2C(=O)O (racemic) [ketorolac, (+/−)-5-Benzoyl-2,3-dihydro-1H-pyrrolizine-1-carboxylic acid:2-amino-2(hydroxymethyl)-1,3-propanediol (1:1)]
flare measurements versus control at 24 and 48 hours ([1]; high and mid dose ketorolac, not statistically significant): remained lower relative to the control group
mydriasis relative to BSS alone ([1]; ketorolac 3-30 μM in BSS, initial two minutes before phenylephrine): No statistical differences; also recorded: did not result in a change in mydriasis substantially different from that observed with BSS alone
flare measures / anterior chamber inflammation versus BSS control at 4.5 hours ([1]; mid (10 μM) and high (30 μM) ketorolac groups combined, F=5.17, P<0.0223): statistically significant difference; also recorded: positive effect of ketorolac on anterior chamber inflammation
anti-miotic effect ([2]; 89 μM KE with 483 μM PE): provided an anti-miotic effect on top of the effect of phenylephrine
subjects with extreme constriction (pupil reduction of 2.5 mm or more) ([2]; 483 μM PE and/or 89 μM KE in BSS): 21%
Subjects Having Pupil Diameter <6 mm during CELR (number of subjects) [2]: 18
Subjects Having Pupil Diameter <6 mm during CELR (percent) [2]: 35%
solubility of three crystal forms ([3]; water): equally soluble in water

CNC[C@H](O)c1cccc(O)c1 [phenylephrine, (−)-m-Hydroxy-a-[(methylamino)methyl]benzyl alcohol hydrochloride]
pupil dilation after adding phenylephrine to ketorolac or BSS perfusate ([1]; 30 μM phenylephrine added at two minutes): rapid dilation occurred
maximal mydriasis attained, dependence on concentration ([1]; 3, 10, 30, 90 μM): concentration-dependent
flare measures relative to tropicamide control ([1]; all time points, Student Newman-Keuls, hydrochloride): no treatment effect on flare measures; also recorded: no significant difference between treatment groups
mean dilation (pupil diameter) at later time points ([1]; high phenylephrine group (30 μM), approaches anatomic limit): ~8.3 mm
concentration resulting in mydriasis exceeding preoperative topical 1% tropicamide ([1]; in BSS perfusate): ≥ 10 µM
mydriasis onset and maintenance (video pupil data) ([1]; phenylephrine 3-90 μM in BSS anterior chamber perfusate): rapid onset mydriasis which was maintained throughout the surgical procedure
flare photometry and pachymetry measures (anterior chamber inflammation, corneal edema) ([1]; phenylephrine added to perfusate): did not indicate a reduction in anterior chamber inflammation or corneal edema
Subjects Having Pupil Diameter <6 mm during CELR (number of subjects) [2]: 11
Subjects Having Pupil Diameter <6 mm during CELR (percent) [2]: 22%
solubility ([3]; water and alcohol): freely soluble in water and alcohol

tropicamide
maximal pupil dilation relative to phenylephrine groups ([1]; two drops 1% topical 20 minutes before BSS irrigation): lower maximal dilation than exhibited by the mid, high and highest concentration phenylephrine groups
mean pupil diameter ([4]; control arm of previous efficacy studies, preoperative topical 1% tropicamide): 5.9 mm
time at which pupil diameter plateaued ([4]; monkey, in vivo): approximately 2.5 minutes
maximal dilation relative to PE-KE group ([4]; topical tropicamide 20 minutes before BSS irrigation): lower maximal dilation than exhibited by the PE-KE treatment group
pupil diameter [5]: 5.18±0.18 mm
